Measured values: US10201531B2, “Indazolyl-oxo-isothiazole compounds” (MOCHIDA PHARMACEUTICAL CO., LTD., priority 2015, dated 2019)

Tested on: Nrf2
Experiment: Evaluation of Nrf2 activation ability (Nrf2d-LacZ / Keap1 HEK293 reporter, Beta-Glo luminescence)
Type: cell-based, human
Details: rated A/B/C, Pharmacological Test Example 1
Protocol: HEK293 cells constantly expressing Nrf2d-LacZ (human Nrf2 degron region fused to LacZ; Hirotsu et al, Genes to Cell, Vol. 16, pp. 406-415 (2011)) and human Keap1 were seeded 7,000 cells/27 μl/well on 384-well plates (Corning 384 Well Flat Clear Bottom White Polystyrene TC-Treated Microplates, Cat. #3707), and cultured overnight at 5% CO2, 37° C. in DMEM medium containing 10% FBS, 100 U/mL penicillin and 100 μg/mL streptomycin. 3 μL/well of a 0.1% DMSO solution of the compound of the invention was added to the cells, which were then cultured for 3 hours at 5% CO2, 37° C. Beta-Glo® reagent (Promega, Beta-Glo Assay System, Cat. #E4740) was added 15 μL/well and incubated for 1 hour at room temperature, and luminescence intensity was measured with a luminometer. Using CDDO-Im as a standard, Nrf2 activation ability was calculated given 100% as the luminescence under stimulus with 100 nM CDDO-Im.

SMILES	EC50
[O-][s+]1nc(O)cc1-n1ncc2cc(-c3ccc(C(F)(F)F)cn3)ccc21 (centres unmarked) [Example 132]	< 1000 nM
[O-][s+]1nc(O)cc1-n1ncc2cc(-c3cncc(N4CCCC4)c3)ccc21 (centres unmarked) [Example 135]	< 1000 nM
[O-][s+]1nc(O)cc1-n1ncc2cc(-c3cccc(N4CCCC4)n3)ccc21 (centres unmarked) [Example 138]	< 1000 nM
[O-][s+]1nc(O)cc1-n1ncc2cc(Oc3ccccc3)ccc21 (centres unmarked) [Example 148]	1000 to 5000 nM
[O-][s+]1nc(O)cc1-n1ncc2cc(-c3cnc4c(c3)OCCN4CC3CC3)ccc21 (centres unmarked) [Example 150]	< 1000 nM
O=C(C1CC1(F)F)N1CCOc2cc(-c3ccc4c(cnn4-c4cc(O)n[s+]4[O-])c3)cnc21 (centres unmarked) [Example 151]	< 1000 nM
[O-][s+]1nc(O)cc1-n1ncc2cc(-c3cnc4c(c3)OCCN4)ccc21 (centres unmarked) [Example 152]	1000 to 5000 nM
O=C(c1ccc(-c2ccc3c(cnn3-c3cc(O)n[s+]3[O-])c2)cn1)N1CCCC1 (centres unmarked) [Example 157]	1000 to 5000 nM
O=C(NC1CCCCC1)N1CCC(c2ccc3c(cnn3-c3cc(O)n[s+]3[O-])c2)CC1 (centres unmarked) [Example 159]	5000 to 10000 nM
[O-][s+]1nc(O)cc1-n1ncc2cc(-c3ccc(N4CCC5(COC5)C4)nc3)ccc21 (centres unmarked) [Example 161]	< 1000 nM
CN1CCOc2ncc(-c3ccc4c(cnn4-c4cc(O)n[s+]4[O-])c3)cc21 (centres unmarked) [Example 165]	1000 to 5000 nM
CN1CCOc2cc(-c3ccc4c(c3)c(Cl)nn4-c3cc(O)n[s+]3[O-])cnc21 (centres unmarked) [Example 169]	< 1000 nM
CN(C(=O)N1CCC(c2ccc3c(cnn3-c3cc(O)n[s+]3[O-])c2)CC1)c1ccccc1 (centres unmarked) [Example 170]	1000 to 5000 nM
CN1CCOc2ccc(-c3ccc4c(cnn4-c4cc(O)n[s+]4[O-])c3)nc21 (centres unmarked) [Example 178]	< 1000 nM
COc1cc(-c2ccc(N3CCCCC3)nc2)c2cnn(-c3cc(O)n[s+]3[O-])c2c1 (centres unmarked) [Example 180]	< 1000 nM
COc1cc(-c2ccnc(N3CCCC3)c2)c2cnn(-c3cc(O)n[s+]3[O-])c2c1 (centres unmarked) [Example 181]	1000 to 5000 nM

SMILES	EC50
COc1cc(C2CC2)c2cnn(-c3cc(O)n[s+]3[O-])c2c1 (centres unmarked) [Example 183]	1000 to 5000 nM
CC1(C)CNc2ncc(-c3ccc4c(cnn4-c4cc(O)n[s+]4[O-])c3)cc2O1 (centres unmarked) [Example 189]	< 1000 nM
[O-][s+]1nc(O)cc1-n1ncc2cc(-c3cnc4c(c3)OCCCN4)ccc21 (centres unmarked) [Example 190]	< 1000 nM
COc1cc(-c2cncc(C)c2)cc2c1cnn2-c1cc(O)n[s+]1[O-] (centres unmarked) [Example 195]	1000 to 5000 nM
COc1cc(C)c2cnn(-c3cc(O)n[s+]3[O-])c2c1 (centres unmarked) [Example 196]	1000 to 5000 nM
CN1C(=O)COc2cc(-c3ccc4c(cnn4-c4cc(O)n[s+]4[O-])c3)cnc21 (centres unmarked) [Example 197]	< 1000 nM
COc1cc(-c2cccnc2)cc2c1cnn2-c1cc(O)n[s+]1[O-] (centres unmarked) [Example 199]	1000 to 5000 nM
COc1cc(-c2ccc(C3CC3)nc2)cc2c1cnn2-c1cc(O)n[s+]1[O-] (centres unmarked) [Example 203]	< 1000 nM
[O-][s+]1nc(O)cc1-n1ncc2cc(-c3cnc4c(c3)OCCCCN4)ccc21 (centres unmarked) [Example 206]	< 1000 nM
COc1c(Br)ccc2c1cnn2-c1cc(O)n[s+]1[O-] (centres unmarked) [Example 207]	< 1000 nM
CN1CCCOc2cc(-c3ccc4c(cnn4-c4cc(O)n[s+]4[O-])c3)cnc21 (centres unmarked) [Example 209]	< 1000 nM
CN1CCOc2nc(-c3ccc4c(cnn4-c4cc(O)n[s+]4[O-])c3)cnc21 (centres unmarked) [Example 210]	< 1000 nM
CN1CCOc2nc(-c3ccc4c(cnn4-c4cc(O)n[s+]4[O-])c3)ncc21 (centres unmarked) [Example 215]	< 1000 nM
CC1(C)COc2cc(-c3ccc4c(cnn4-c4cc(O)n[s+]4[O-])c3)cnc2N1 (centres unmarked) [Example 217]	< 1000 nM
[O-][s+]1nc(O)cc1-n1ncc2cc(-c3cnc4c(c3)OCCO4)ccc21 (centres unmarked) [Example 220]	< 1000 nM

Other lines, results leading:

EC50	SMILES
< 1000 nM	[O-][s+]1nc(O)cc1-n1ncc2cc(-c3cccc(C(F)(F)F)n3)ccc21 (centres unmarked) [Example 130]
< 1000 nM	CN(C)c1ccc(-c2ccc3c(cnn3-c3cc(O)n[s+]3[O-])c2)cn1 (centres unmarked) [Example 136]
< 1000 nM	[O-][s+]1nc(O)cc1-n1ncc2cc(-c3ccc(N4CCCC4)cn3)ccc21 (centres unmarked) [Example 139]
< 1000 nM	[O-][s+]1nc(O)cc1-n1ncc2cc(-c3cnc(N4CCCCC4)cn3)ccc21 (centres unmarked) [Example 140]
< 1000 nM	[O-][s+]1nc(O)cc1-n1ncc2cc(-c3cncc(N4CCCC4)n3)ccc21 (centres unmarked) [Example 141]
1000 to 5000 nM	[O-][s+]1nc(O)cc1-n1ncc2cc(-c3cnc(N4CCOCC4)cn3)ccc21 (centres unmarked) [Example 142]
< 1000 nM	CCN1CCOc2cc(-c3ccc4c(cnn4-c4cc(O)n[s+]4[O-])c3)cnc21 (centres unmarked) [Example 143]
1000 to 5000 nM	[O-][s+]1nc(O)cc1-n1ncc2cc(OCc3cccnc3)ccc21 (centres unmarked) [Example 144]
< 1000 nM	[O-][s+]1nc(O)cc1-n1ncc2cc(-c3cnc4c(c3)OCCN4C3CC3)ccc21 (centres unmarked) [Example 149]
< 1000 nM	[O-][s+]1nc(O)cc1-n1ncc2cc(-c3cncc(N4CCCCC4)c3)ccc21 (centres unmarked) [Example 153]
< 1000 nM	CN1CCc2cc(-c3ccc4c(cnn4-c4cc(O)n[s+]4[O-])c3)cnc21 (centres unmarked) [Example 158]
< 1000 nM	CC(C)CN1CCOc2cc(-c3ccc4c(cnn4-c4cc(O)n[s+]4[O-])c3)cnc21 (centres unmarked) [Example 160]
< 1000 nM	[O-][s+]1nc(O)cc1-n1ncc2cc(-c3cnc4c(c3)OCCN4CC3CCC3)ccc21 (centres unmarked) [Example 162]
5000 to 10000 nM	CN1C(=O)CCc2cc(-c3ccc4c(cnn4-c4cc(O)n[s+]4[O-])c3)cnc21 (centres unmarked) [Example 164]
1000 to 5000 nM	COc1cc(-c2cccnc2)c2cnn(-c3cc(O)n[s+]3[O-])c2c1 (centres unmarked) [Example 166]
1000 to 5000 nM	COc1cc(-c2cncc(C)c2)c2cnn(-c3cc(O)n[s+]3[O-])c2c1 (centres unmarked) [Example 167]
5000 to 10000 nM	O=C(c1ccccc1)N1CCC(c2ccc3c(cnn3-c3cc(O)n[s+]3[O-])c2)CC1 (centres unmarked) [Example 168]
5000 to 10000 nM	Cn1cc(-c2ccc3c(cnn3-c3cc(O)n[s+]3[O-])c2)ccc1=O (centres unmarked) [Example 171]
< 1000 nM	COCCN1CCOc2cc(-c3ccc4c(cnn4-c4cc(O)n[s+]4[O-])c3)cnc21 (centres unmarked) [Example 172]
< 1000 nM	COc1cc(-c2ccc3c(cnn3-c3cc(O)n[s+]3[O-])c2)cnc1N(C)C (centres unmarked) [Example 173]
1000 to 5000 nM	COc1cc(-c2cnc3c(c2)OCCN3C)c2cnn(-c3cc(O)n[s+]3[O-])c2c1 (centres unmarked) [Example 174]
< 1000 nM	COc1cc(-c2ccc(N3CCCC3)nc2)c2cnn(-c3cc(O)n[s+]3[O-])c2c1 (centres unmarked) [Example 175]
1000 to 5000 nM	COc1cc(-c2ccnc(N3CCCCC3)c2)c2cnn(-c3cc(O)n[s+]3[O-])c2c1 (centres unmarked) [Example 176]

EC50	SMILES
< 1000 nM	COc1cc(Br)cc2c1cnn2-c1cc(O)n[s+]1[O-] (centres unmarked) [Example 177]
< 1000 nM	CN1CCOc2nc(-c3ccc4c(cnn4-c4cc(O)n[s+]4[O-])c3)ccc21 (centres unmarked) [Example 179]
< 1000 nM	[O-][s+]1nc(O)cc1-n1ncc2cc(-c3ccc(N4CCC(F)(F)C4)nc3)ccc21 (centres unmarked) [Example 182]
< 1000 nM	CN1CCOc2cc(-c3ccc4c(cnn4-c4cc(O)n[s+]4[O-])c3)c(C#N)nc21 (centres unmarked) [Example 184]
< 1000 nM	Cc1nc2c(cc1-c1ccc3c(cnn3-c3cc(O)n[s+]3[O-])c1)OCCN2C (centres unmarked) [Example 185]
< 1000 nM	O=C1CCCN1c1ccc(-c2ccc3c(cnn3-c3cc(O)n[s+]3[O-])c2)cn1 (centres unmarked) [Example 186]
< 1000 nM	CN1C(=O)C(C)(C)Oc2cc(-c3ccc4c(cnn4-c4cc(O)n[s+]4[O-])c3)cnc21 (centres unmarked) [Example 187]
< 1000 nM	CN1CC(C)(C)Oc2cc(-c3ccc4c(cnn4-c4cc(O)n[s+]4[O-])c3)cnc21 (centres unmarked) [Example 188]
1000 to 5000 nM	COc1cccc2c1cnn2-c1cc(O)n[s+]1[O-] (centres unmarked) [Example 191]
< 1000 nM	COc1cc(-c2cnc3c(c2)OCCN3C)cc2c1cnn2-c1cc(O)n[s+]1[O-] (centres unmarked) [Example 192]
< 1000 nM	COc1cc(-c2ccc(N3CCCC3)nc2)cc2c1cnn2-c1cc(O)n[s+]1[O-] (centres unmarked) [Example 193]
< 1000 nM	COc1cc(-c2ccnc(N3CCCC3)c2)cc2c1cnn2-c1cc(O)n[s+]1[O-] (centres unmarked) [Example 194]
< 1000 nM	COCC1CCCN1c1ccc(-c2ccc3c(cnn3-c3cc(O)n[s+]3[O-])c2)cn1 (centres unmarked) [Example 198]
1000 to 5000 nM	COc1cc(-c2ccncc2)cc2c1cnn2-c1cc(O)n[s+]1[O-] (centres unmarked) [Example 200]
< 1000 nM	COc1cc(-c2cc(OC)c3cnn(-c4cc(O)n[s+]4[O-])c3c2)ccn1 (centres unmarked) [Example 201]
< 1000 nM	CN1CCOc2cc(-c3ccc4c(cnn4-c4cc(O)n[s+]4[O-])c3)c(C(F)F)nc21 (centres unmarked) [Example 204]
< 1000 nM	CN1CCCCOc2cc(-c3ccc4c(cnn4-c4cc(O)n[s+]4[O-])c3)cnc21 (centres unmarked) [Example 205]
< 1000 nM	COc1c(-c2cnc3c(c2)OCCN3C)ccc2c1cnn2-c1cc(O)n[s+]1[O-] (centres unmarked) [Example 211]
< 1000 nM	[O-][s+]1nc(O)cc1-n1ncc2cc(-c3cnc4c(c3)OCC3CCCN43)ccc21 (centres unmarked) [Example 212]
< 1000 nM	CN1c2ncc(-c3ccc4c(cnn4-c4cc(O)n[s+]4[O-])c3)cc2OCC1(C)C (centres unmarked) [Example 213]
1000 to 5000 nM	CN1CCOc2cc(-c3ccc4c(c3)c(C3CC3)nn4-c3cc(O)n[s+]3[O-])cnc21 (centres unmarked) [Example 216]
1000 to 5000 nM	CN1C(=O)COc2nc(-c3ccc4c(cnn4-c4cc(O)n[s+]4[O-])c3)ncc21 (centres unmarked) [Example 218]
< 1000 nM	[O-][s+]1nc(O)cc1-n1ncc2cc(-c3cc4c(cn3)NCCO4)ccc21 (centres unmarked) [Example 219]
